Test results: patent US10208083B2 (priority 2015, dated 2019)
pIC50: −log10 of the molar value. Marks after values point to notes of the source that are not given here.

Columns and labels:
UWB1.289 + BRCA1 = test: cells; format: cell-based, human; design: TGI: unit not given here; conditions: for GI50 / pIC50: Homo sapiens, UWB1289, 48 h
C57Bl/6 mice = conditions: female, C57Bl/6, mouse, in vivo, ip
K-562 = test: cells; format: cell-based, human; design: TGI: unit not given here; conditions: for GI50 / pIC50: Homo sapiens, K562, 48 h
OVCAR-3 = test: cells; format: cell-based, human; design: TGI: unit not given here; conditions: for GI50 / pIC50: Homo sapiens, OVCAR-3, 48 h
in vivo = conditions: female, C57Bl/6, mouse, ip
SKOV-3 = test: cells; format: cell-based, human; design: TGI: unit not given here; conditions: for GI50 / pIC50: Homo sapiens, SK-OV-3, 48 h
PC-3 = test: cells; format: cell-based, human; design: TGI: unit not given here; conditions: for GI50 / pIC50: Homo sapiens, PC-3, 48 h
UWB1.289 = test: cells; format: cell-based, human; design: TGI: unit not given here; conditions: for GI50 / pIC50: Homo sapiens, UWB1289, 48 h
MCF-7 = test: cells; format: cell-based, human; design: TGI: unit not given here; conditions: for GI50 / pIC50: Homo sapiens, MCF7, 48 h
MOLT-4 = test: cells; format: cell-based, human; design: TGI: unit not given here; conditions: for GI50 / pIC50: Homo sapiens, MOLT-4, 48 h
[1] = test system: SCOV-3 human ovarian cancer; conditions: in vivo; for OS % on Day-70: test concentration or dose not given here; for PFS % on Day-70: test concentration or dose not given here
[2] = test system: murine P388 lymphocytic leukemia; design: species or system mice; conditions: mouse, in vivo, ip; note: test concentration or dose not given here
T-47D = test: cells; format: cell-based, human; design: TGI: unit not given here; conditions: for GI50 / pIC50: Homo sapiens, T47D, 48 h

Row | Compound | TGI (UWB1.289 + BRCA1) | GI50 (UWB1.289 + BRCA1) | pIC50 (UWB1.289 + BRCA1) | LD10 (C57Bl/6 mice) | TGI (K-562) | GI50 (K-562) | pIC50 (K-562) | TGI (OVCAR-3) | GI50 (OVCAR-3) | pIC50 (OVCAR-3) | LD50 (in vivo) | TGI (SKOV-3) | GI50 (SKOV-3) | pIC50 (SKOV-3) | TGI (PC-3) | GI50 (PC-3) | pIC50 (PC-3) | TGI (UWB1.289) | GI50 (UWB1.289) | pIC50 (UWB1.289) | also measured
1 | C[C@]12CC[C@H](OC(=O)Cc3ccc(N(CCCl)CCCl)cc3)C[C@@H]1CC[C@@H]1[C@@H]2CC[C@@]2(C)NC(=O)CC[C@@H]12 [ASE, 3beta-hydroxy-13alpha-amino-13,17-seco-5alpha-androstan-17-oic-13,17-lactam-[p-[bis (2-chloroethyl)amino]phenyl]acetate, reference compound] | >100 | 80 µM | < 4.00 | 30 mg/kg | 78 | 9 µM | < 4.00 | 52 | 36 µM | 4.19 | 50 mg/kg | 92 | 45 µM | < 4.00 | 49 | 34 µM | 4.05 | 30 | 16 µM | 4.27 | TGI (MCF-7): 57; GI50 (MCF-7): 29 µM; pIC50 (MCF-7): 4.02; TGI (MOLT-4): 56; GI50 (MOLT-4): 8 µM; pIC50 (MOLT-4): 4.03; OS % on Day-70 [1]: 80%; PFS % on Day-70 [1]: 40%; TI % at Day-35 [1]: 34%; Cures [2]: 0/6; MST ± SD [2]: 24 days; T/C % [2]: 267* %; TGI (T-47D): 47; GI50 (T-47D): 22 µM; pIC50 (T-47D): 4.04
2 | C[C@]12CC[C@H]3[C@@H](CCC4=CC(=O)NCC[C@@]43C)[C@@H]1CC[C@@H]2OC(=O)CCOc1ccc(N(CCCl)CCCl)cc1 [Compound 3] | 25 | 12 µM | 4.40 | 130 mg/kg | 30 | 3 µM | 4.15 | 32 | 21 µM | 4.38 | 150 mg/kg | 52 | 18 µM | 4.12 | 30 | 22 µM | 4.25 | 8 | 3 µM | 4.70 | TGI (MCF-7): 38; GI50 (MCF-7): 17 µM; pIC50 (MCF-7): 4.15; TGI (MOLT-4): 27; GI50 (MOLT-4): 3 µM; pIC50 (MOLT-4): 4.19; OS % on Day-70 [1]: 100%; PFS % on Day-70 [1]: 100%; TI % at Day-35 [1]: 62%; Cures [2]: 0/6; MST ± SD [2]: 39 days; T/C % [2]: 433* %; TGI (T-47D): 25; GI50 (T-47D): 10 µM; pIC50 (T-47D): 4.18
3 | C[C@]12CC[C@@H]3c4ccc(OC(=O)CCOc5ccc(N(CCCl)CCCl)cc5)cc4CC[C@H]3[C@@H]1CCC(=O)N2 [Compound 6] | 66 | 18 µM | 4.06 | 80 mg/kg | 30 | 5 µM | 4.30 | 40 | 30 µM | 4.25 | 100 mg/kg | 76 | 12 µM | < 4.00 | 29 | 16 µM | 4.29 | 20 | 6 µM | 4.36 | TGI (MCF-7): 36; GI50 (MCF-7): 15 µM; pIC50 (MCF-7): 4.19; TGI (MOLT-4): 28; GI50 (MOLT-4): 5 µM; pIC50 (MOLT-4): 4.30; OS % on Day-70 [1]: 100%; PFS % on Day-70 [1]: 100%; TI % at Day-35 [1]: 56%; Cures [2]: 0/6; MST ± SD [2]: 36 days; T/C % [2]: 400* %; TGI (T-47D): 30; GI50 (T-47D): 10 µM; pIC50 (T-47D): 4.26
4 | C[C@]12CC(=O)[C@H]3[C@@H](CCC4=CC(=O)NCC[C@@]43C)[C@@H]1CC[C@@H]2OC(=O)CCOc1ccc(N(CCCl)CCCl)cc1 [Compound 11] | 31 | 22 µM | 4.38 | 100 mg/kg | 35 | 2 µM | 4.26 | 18 | 8 µM | 4.66 | 130 mg/kg | 32 | 20 µM | 4.36 | 44 | 29 µM | 4.17 | 20 | 6 µM | 4.60 | TGI (MCF-7): 68; GI50 (MCF-7): 25 µM; pIC50 (MCF-7): < 4.00; TGI (MOLT-4): 20; GI50 (MOLT-4): 1.5 µM; pIC50 (MOLT-4): 4.35; OS % on Day-70 [1]: 100%; PFS % on Day-70 [1]: 100%; TI % at Day-35 [1]: 73%; Cures [2]: 1/6; MST ± SD [2]: 56 days; T/C % [2]: 622* %; TGI (T-47D): 59; GI50 (T-47D): 26 µM; pIC50 (T-47D): 4.01
5 | C[C@]12CC(=O)N[C@H]3[C@@H](CCC4=CC(=O)NCC[C@@]43C)[C@@H]1CC[C@@H]2OC(=O)CCOc1ccc(N(CCCl)CCCl)cc1 [Compound 16] | 32 | 12 µM | 4.30 | 140 mg/kg | 47 | 7 µM | 4.19 | 20 | 9 µM | 4.46 | 165 mg/kg | 46 | 20 µM | 4.15 | 29 | 16 µM | 4.29 | 28 | 3 µM | 4.40 | TGI (MCF-7): 36; GI50 (MCF-7): 15 µM; pIC50 (MCF-7): 4.19; TGI (MOLT-4): 36; GI50 (MOLT-4): 4 µM; pIC50 (MOLT-4): 4.25; OS % on Day-70 [1]: 100%; PFS % on Day-70 [1]: 100%; TI % at Day-35 [1]: 55%; Cures [2]: 0/6; MST ± SD [2]: 44 days; T/C % [2]: 489* %; TGI (T-47D): 30; GI50 (T-47D): 10 µM; pIC50 (T-47D): 4.26
